Common to all, as to assay type: biochemical
The target of one assay is T1, cathepsin S (Homo sapiens, UniProt P25774).
T1 construct: purchased Calbiochem 219343; host or cells: E. coli
In words: Cathepsin S enzyme inhibition in vitro (kinetic fluorescence assay). The conditions noted are these: recombinant human cathepsin S vs calpain I. The procedure, abridged:
(§1)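 cat B 0.25 nM + Z-Phe-Arg-AMC 100 μM; cat L 1 nM + Z-Phe-Arg-AMC 2 μM; cat S 0.5 nM (E. coli-expressed) + Z-Val-Val-Arg-AMC 20 μM. 50 mM MES pH 6.0, 2.5 mM L-Cys, RT. Ex 390/em 460, kinetic; Ki app = Cheng-Prusoff from IC50, mean of 2–4 curves.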

In another assay the target is T2, cathepsin L (Homo sapiens, UniProt P07711).
T2 construct: cathepsin L—isolated from human liver (Calbiochem #219402); purchased Calbiochem 219402; host or cells: human liver (tissue-derived)
In words: Cathepsin L enzyme inhibition in vitro (kinetic fluorescence assay). Conditions: cathepsin L isolated from human liver vs calpain I. The procedure, abridged:
as §1

Another assay deals with T3, cathepsin K (Homo sapiens, UniProt P43235).
T3 construct: purchased Calbiochem 342001; host or cells: E. coli
T3 sequence (P43235 115-329): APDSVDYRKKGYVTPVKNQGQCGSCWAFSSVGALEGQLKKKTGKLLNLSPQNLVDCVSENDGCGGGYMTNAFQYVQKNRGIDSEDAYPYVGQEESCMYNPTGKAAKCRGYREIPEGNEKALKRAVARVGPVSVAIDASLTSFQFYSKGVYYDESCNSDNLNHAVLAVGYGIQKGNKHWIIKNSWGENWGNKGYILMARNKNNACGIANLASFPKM
Briefly: Cathepsin K enzyme inhibition in vitro (kinetic fluorescence assay). Conditions: cathepsin K activated from recombinant human procathepsin K vs calpain I.

Another assay deals with T4, cathepsin B (Homo sapiens, UniProt P07858).
T4 construct: cathepsin B—isolated from human liver (Calbiochem #219362); purchased Calbiochem 219362; host or cells: human liver (tissue-derived)
Briefly: Cathepsin B enzyme inhibition in vitro (kinetic fluorescence assay). Conditions: cathepsin B isolated from human liver vs calpain I. The procedure, abridged: as §1

T1 sequence (P25774 115-331): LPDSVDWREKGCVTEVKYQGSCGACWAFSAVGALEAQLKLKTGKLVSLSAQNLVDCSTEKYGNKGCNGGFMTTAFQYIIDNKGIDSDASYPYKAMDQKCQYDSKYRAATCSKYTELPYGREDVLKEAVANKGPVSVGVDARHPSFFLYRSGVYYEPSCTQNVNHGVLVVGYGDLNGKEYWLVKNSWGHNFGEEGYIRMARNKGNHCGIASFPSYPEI
T2 sequence (P07711 114-333): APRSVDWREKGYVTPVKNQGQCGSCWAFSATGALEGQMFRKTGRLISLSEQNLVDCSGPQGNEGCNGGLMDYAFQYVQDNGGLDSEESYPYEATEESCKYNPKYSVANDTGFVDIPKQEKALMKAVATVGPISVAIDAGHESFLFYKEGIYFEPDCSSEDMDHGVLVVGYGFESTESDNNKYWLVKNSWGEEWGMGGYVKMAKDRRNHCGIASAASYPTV

In the case of `NC(=O)C(=O)C(Cc1ccccc1)NC(=O)c1cccnc1-n1ccc(-c2cccc(OC(F)(F)F)c2)n1` (stereo not shown) [Example 168, N-[3-Amino-2,3-dioxo-1-(phenylmethyl)propyl]-2-(3-{3-[(trifluoromethyl)oxy]phenyl}-1H-pyrazol-1-yl)pyridine-3-carboxamide], the “Sel cat. S: Ki(cathepsin S)/Ki(calpain) ratio” value at cathepsin S is “++ (++ means a Ki(cathepsin S)/Ki(calpain) ratio of ≧100)”. The “Sel cat. L: Ki(cathepsin L)/Ki(calpain) ratio” value at cathepsin L is “++ (++ means a Ki(cathepsin L)/Ki(calpain) ratio of ≧50)”. Also, at cathepsin K, the “Sel cat. K: Ki(cathepsin K)/Ki(calpain) ratio” value is given as “+ (+ means 10≦Ki(cathepsin K)/Ki(calpain)<30)”. For the same molecule, on cathepsin B, the “Sel cat. B: Ki(cathepsin B)/Ki(calpain) ratio” value is “+ (+ means 10≦Ki(cathepsin B)/Ki(calpain)<30)”.

As for `NC(=O)C(=O)C(Cc1ccccc1)NC(=O)c1cccnc1-n1cc2c(n1)-c1ccccc1SC2` (stereo not shown) [Example 173, N-[3-Amino-2,3-dioxo-1-(phenylmethyl)propyl]-2-thiochromeno[4,3-c]pyrazol-2(4H)-ylpyridine-3-carboxamide], on cathepsin S, the “Sel cat. S: Ki(cathepsin S)/Ki(calpain) ratio” value was “++ (++ means a Ki(cathepsin S)/Ki(calpain) ratio of ≧100)”. Also, at cathepsin L, the “Sel cat. L: Ki(cathepsin L)/Ki(calpain) ratio” value was “++ (++ means a Ki(cathepsin L)/Ki(calpain) ratio of ≧50)”. Further, at cathepsin K, the “Sel cat. K: Ki(cathepsin K)/Ki(calpain) ratio” value is reported as “+ (+ means 10≦Ki(cathepsin K)/Ki(calpain)<30)”. For the same molecule, the “Sel cat. B: Ki(cathepsin B)/Ki(calpain) ratio” value at cathepsin B is reported as “+ (+ means 10≦Ki(cathepsin B)/Ki(calpain)<30)”.

Regarding `NC(=O)C(=O)C(Cc1ccccc1)NC(=O)c1cccnc1-n1cc2c(n1)-c1ccccc1S(=O)(=O)C2` (stereo not shown) [Example 174, N-[3-Amino-2,3-dioxo-1-(phenylmethyl)propyl]-2-(5,5-dioxidothiochromeno[4,3-c]pyrazol-2(4H)-yl)pyridine-3-carboxamide], the “Sel cat. S: Ki(cathepsin S)/Ki(calpain) ratio” value on cathepsin S is reported as “++ (++ means a Ki(cathepsin S)/Ki(calpain) ratio of ≧100)”. For the same molecule, the “Sel cat. L: Ki(cathepsin L)/Ki(calpain) ratio” value on cathepsin L is “++ (++ means a Ki(cathepsin L)/Ki(calpain) ratio of ≧50)”. Further, the “Sel cat. K: Ki(cathepsin K)/Ki(calpain) ratio” value on cathepsin K was “+ (+ means 10≦Ki(cathepsin K)/Ki(calpain)<30)”. Besides, the “Sel cat. B: Ki(cathepsin B)/Ki(calpain) ratio” value at cathepsin B is listed as “+ (+ means 10≦Ki(cathepsin B)/Ki(calpain)<30)”.

Regarding `NC(=O)C(=O)C(Cc1ccccc1)NC(=O)c1cccnc1-n1cc2c(n1)-c1cccc(Cl)c1OC2` (stereo not shown) [Example 175, N-[3-Amino-2,3-dioxo-1-(phenylmethyl)propyl]-2-(6-chlorochromeno[4,3-c]pyrazol-2(4H)-yl)pyridine-3-carboxamide], at cathepsin S, the “Sel cat. S: Ki(cathepsin S)/Ki(calpain) ratio” value is listed as “++ (++ means a Ki(cathepsin S)/Ki(calpain) ratio of ≧100)”. In addition, the “Sel cat. L: Ki(cathepsin L)/Ki(calpain) ratio” value at cathepsin L is given as “++ (++ means a Ki(cathepsin L)/Ki(calpain) ratio of ≧50)”. Moreover, the “Sel cat. K: Ki(cathepsin K)/Ki(calpain) ratio” value on cathepsin K is given as “++ (++ means a Ki(cathepsin K)/Ki(calpain) ratio of ≧30)”. Besides, the “Sel cat. B: Ki(cathepsin B)/Ki(calpain) ratio” value on cathepsin B is listed as “++ (++ means a Ki(cathepsin B)/Ki(calpain) ratio of ≧30)”.

For the molecule `COc1ccc2c(c1)-c1nn(-c3ncccc3C(=O)NC(Cc3ccccc3)C(=O)C(N)=O)cc1CO2` (stereo not shown) [Example 183, N-[3-Aamino-2,3-dioxo-1-(phenylmethyl)propyl]-2-[8-(methyloxy)chromeno[4,3-c]pyrazol-2(4H)-yl]pyridine-3-carboxamide], the “Sel cat. S: Ki(cathepsin S)/Ki(calpain) ratio” value at cathepsin S is listed as “++ (++ means a Ki(cathepsin S)/Ki(calpain) ratio of ≧100)”. The “Sel cat. L: Ki(cathepsin L)/Ki(calpain) ratio” value on cathepsin L is on record as “++ (++ means a Ki(cathepsin L)/Ki(calpain) ratio of ≧50)”. Further, the “Sel cat. K: Ki(cathepsin K)/Ki(calpain) ratio” value on cathepsin K was “+ (+ means 10≦Ki(cathepsin K)/Ki(calpain)<30)”. Besides, the “Sel cat. B: Ki(cathepsin B)/Ki(calpain) ratio” value at cathepsin B is reported as “+ (+ means 10≦Ki(cathepsin B)/Ki(calpain)<30)”.

Take `NC(=O)C(=O)C(Cc1ccccc1)NC(=O)c1cccnc1-n1cc(Cl)c(-c2ccc(F)cc2)n1` (stereo not shown) [Example 184, N-[3-Amino-2,3-dioxo-1-(phenylmethyl)propyl]-2-[4-chloro-3-(4-fluorophenyl)-1H-pyrazol-1-yl]pyridine-3-carboxamide]: on cathepsin S, the “Sel cat. S: Ki(cathepsin S)/Ki(calpain) ratio” value was “++ (++ means a Ki(cathepsin S)/Ki(calpain) ratio of ≧100)”. Also, the “Sel cat. L: Ki(cathepsin L)/Ki(calpain) ratio” value on cathepsin L is given as “++ (++ means a Ki(cathepsin L)/Ki(calpain) ratio of ≧50)”. The “Sel cat. K: Ki(cathepsin K)/Ki(calpain) ratio” value at cathepsin K is “+ (+ means 10≦Ki(cathepsin K)/Ki(calpain)<30)”. The “Sel cat. B: Ki(cathepsin B)/Ki(calpain) ratio” value on cathepsin B was “+ (+ means 10≦Ki(cathepsin B)/Ki(calpain)<30)”.

Turning to `NC(=O)C(=O)C(Cc1ccccc1)NC(=O)c1cccnc1-n1ccc(C23CC4CC(CC(C4)C2)C3)n1` (stereo not shown) [Example 193, N-[3-Amino-2,3-dioxo-1-(phenylmethyl)propyl]-2-(3-tricyclo[3.3.1.1^3,7]dec-1-yl-1H-pyrazol-1-yl)pyridine-3-carboxamide], the “Sel cat. S: Ki(cathepsin S)/Ki(calpain) ratio” value at cathepsin S is “++ (++ means a Ki(cathepsin S)/Ki(calpain) ratio of ≧100)”. Also, the “Sel cat. L: Ki(cathepsin L)/Ki(calpain) ratio” value on cathepsin L is “++ (++ means a Ki(cathepsin L)/Ki(calpain) ratio of ≧50)”. The “Sel cat. K: Ki(cathepsin K)/Ki(calpain) ratio” value at cathepsin K is listed as “++ (++ means a Ki(cathepsin K)/Ki(calpain) ratio of ≧30)”. The “Sel cat. B: Ki(cathepsin B)/Ki(calpain) ratio” value on cathepsin B is given as “++ (++ means a Ki(cathepsin B)/Ki(calpain) ratio of ≧30)”.

Take “N-(3-Amino-1-{[4-(methyloxy)phenyl]methyl}-2,3-dioxopropyl)-2-{3-[3-(trifluoromethyl)phenyl]-1H-pyrazol-1-yl}pyridine-3-carboxamide [Example 126]”: the “Sel cat. S: Ki(cathepsin S)/Ki(calpain) ratio” value at cathepsin S is reported as “++ (++ means a Ki(cathepsin S)/Ki(calpain) ratio of ≧100)”. Moreover, the “Sel cat. L: Ki(cathepsin L)/Ki(calpain) ratio” value on cathepsin L is “++ (++ means a Ki(cathepsin L)/Ki(calpain) ratio of ≧50)”. Also, at cathepsin K, the “Sel cat. K: Ki(cathepsin K)/Ki(calpain) ratio” value is “++ (++ means a Ki(cathepsin K)/Ki(calpain) ratio of ≧30)”. Further, the “Sel cat. B: Ki(cathepsin B)/Ki(calpain) ratio” value on cathepsin B was “++ (++ means a Ki(cathepsin B)/Ki(calpain) ratio of ≧30)”.

“N-[3-Amino-2,3-dioxo-1-(phenylmethyl)propyl]-2-[3-(3,5-dichlorophenyl)-1H-pyrazol-1-yl]pyridine-3-carboxamide [Example 89]”: the “Sel cat. S: Ki(cathepsin S)/Ki(calpain) ratio” value on cathepsin S is on record as “++ (++ means a Ki(cathepsin S)/Ki(calpain) ratio of ≧100)”. Also, on cathepsin L, the “Sel cat. L: Ki(cathepsin L)/Ki(calpain) ratio” value is listed as “++ (++ means a Ki(cathepsin L)/Ki(calpain) ratio of ≧50)”. Further, the “Sel cat. K: Ki(cathepsin K)/Ki(calpain) ratio” value at cathepsin K is reported as “+ (+ means 10≦Ki(cathepsin K)/Ki(calpain)<30)”. The “Sel cat. B: Ki(cathepsin B)/Ki(calpain) ratio” value at cathepsin B is “+ (+ means 10≦Ki(cathepsin B)/Ki(calpain)<30)”.

On to “N-{3-Amino-1-[(4-fluorophenyl)methyl]-2,3-dioxopropyl}-2-[3-(2-chloro-3-fluorophenyl)-1H-pyrazol-1-yl]pyridine-3-carboxamide [Example 154]”, for which, at cathepsin S, the “Sel cat. S: Ki(cathepsin S)/Ki(calpain) ratio” value is reported as “++ (++ means a Ki(cathepsin S)/Ki(calpain) ratio of ≧100)”. Besides, on cathepsin L, the “Sel cat. L: Ki(cathepsin L)/Ki(calpain) ratio” value is recorded as “++ (++ means a Ki(cathepsin L)/Ki(calpain) ratio of ≧50)”. Moreover, on cathepsin K, the “Sel cat. K: Ki(cathepsin K)/Ki(calpain) ratio” value is given as “++ (++ means a Ki(cathepsin K)/Ki(calpain) ratio of ≧30)”. The “Sel cat. B: Ki(cathepsin B)/Ki(calpain) ratio” value at cathepsin B is given as “++ (++ means a Ki(cathepsin B)/Ki(calpain) ratio of ≧30)”.

The record behind these values is patent US7799809B2, “Carboxamide compounds and their use as calpain inhibitors” (Abbott GmbH & Co. KG, priority 2006, dated 2010).
